Our source for the T/C values is PubChem BioAssay AID180 (DTP/NCI, 2004).

The subject of this test is BDF1 mice, Adenocarcinoma 755 s.c., tumor weight T/C. Kind of test: NCI In Vivo Anticancer Drug Screen. Data for tumor model Adenocarcinoma 755 (subcutaneous) in B6D2F1 (BDF1) mice. The settings on record: endpoint: mean tumor weight, higher = larger tumour. The gist of the method: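 Tumor-bearing mice receive test compound while controls get vehicle alone. Antitumor effect is scored from survival or tumor dimensions as a T/C quotient.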

The mark [1] stands for this setting: dose: 10.0 mg/kg/injection, schedule: Q01DX011 (sc), vehicle: steriod suspending solution.
[2] abbreviates: dose: 20.0 mg/kg/injection, schedule: Q01DX011 (sc), vehicle: steriod suspending solution.
Setting [3] is: dose: 40.0 mg/kg/injection, schedule: Q01DX011 (sc), vehicle: steriod suspending solution.
Setting [4] is: dose: 80.0 mg/kg/injection, schedule: Q01DX011 (sc), vehicle: steriod suspending solution.

Several values for one entry are separate records, joined by “and”; a condition that tells them apart may be missing. Equal entries are not always repeated.

The term T/C denotes the result in the treated group divided by that in the control group, in per cent. In the case of `CCCCCCCCn1cnc2c(=S)nc[nH]c21`, the T/C runs as follows: (dose: 125.0 mg/kg/injection, schedule: Q01DX011 (ip), vehicle: carboxymethylcellulose (CMC)) 84 % of control; (dose: 250.0 mg/kg/injection, schedule: Q01DX011 (ip), vehicle: carboxymethylcellulose (CMC)) 67 % of control; (dose: 500.0 mg/kg/injection, schedule: Q01DX011 (ip), vehicle: carboxymethylcellulose (CMC)) 102 % of control.
With `C[C@H]1C[C@H]2[C@@H]3CC[C@](O)(C(=O)CF)[C@@]3(C)C[C@H](O)[C@]2(F)[C@@]2(C)C=CC(=O)C=C12`, the T/C (dose: 0.62 mg/kg/injection, schedule: Q01DX011 (sc), vehicle: steriod suspending solution) is 89 % of control; the T/C (dose: 1.0 mg/kg/injection, schedule: Q01DX011 (sc), vehicle: steriod suspending solution) is 76 % of control; the T/C (dose: 1.25 mg/kg/injection, schedule: Q01DX011 (sc), vehicle: steriod suspending solution) was 69 % of control; the T/C under setting [1] is 16 % of control and 29 % of control and 33 % of control; the T/C under setting [2] was 18 % of control and 27 % of control; the T/C under setting [3] is 11 % of control and 14 % of control. The T/C by setting is: under setting [4], 14 % of control; (dose: 160.0 mg/kg/injection, schedule: Q01DX011 (sc), vehicle: steriod suspending solution) 4 % of control.
Turning to `Cn1c(=O)c2c(nc(C(O)(c3ccccc3)c3ccccc3)n2C)n(C)c1=O`, the T/C is 122 % of control (dose: 40.0 mg/kg/injection, schedule: Q01DX011 (ip), vehicle: methylcellulose (MC)) and 66 % of control (dose: 75.0 mg/kg/injection, schedule: Q01DX011 (ip), vehicle: methylcellulose (MC)).
Consider `C[C@]12CCC(=O)C=C1CC[C@@H]1[C@@H]2[C@@H](O)C[C@@]2(C)[C@H]1CC[C@]2(O)C(=O)CO`, for which the T/C reads like this: (dose: 2.5 mg/kg/injection, schedule: Q01DX011 (sc), vehicle: steriod suspending solution) 96 % of control; (dose: 4.0 mg/kg/injection, schedule: Q01DX011 (sc), vehicle: steriod suspending solution) 49 % of control; (dose: 5.0 mg/kg/injection, schedule: Q01DX011 (sc), vehicle: steriod suspending solution) 110 % of control; (dose: 8.7 mg/kg/injection, schedule: Q01DX011 (sc), vehicle: steriod suspending solution) 49 % of control; under setting [1], 56 % of control; (dose: 17.5 mg/kg/injection, schedule: Q01DX011 (sc), vehicle: steriod suspending solution) 32 % of control. Moreover, the T/C runs as follows: under setting [2], 32 % of control and 34 % of control; (dose: 35.0 mg/kg/injection, schedule: Q01DX011 (sc), vehicle: steriod suspending solution) 24 % of control; under setting [3], 11 % of control; (dose: 70.0 mg/kg/injection, schedule: Q01DX011 (sc), vehicle: steriod suspending solution) 8 % of control; under setting [4], 13 % of control; (dose: 140.0 mg/kg/injection, schedule: Q01DX011 (sc), vehicle: steriod suspending solution) 1 % of control.
For the molecule `CSc1nc2c(=O)[nH]c(N)nc2n1C1OC(CO)C(O)C1O` (stereo not drawn), the T/C reads like this: (dose: 30.0 mg/kg/injection, schedule: Q01DX011 (ip), vehicle: carboxymethylcellulose (CMC)) 88 % of control; (dose: 60.0 mg/kg/injection, schedule: Q01DX011 (ip), vehicle: carboxymethylcellulose (CMC)) 98 % of control; (dose: 120.0 mg/kg/injection, schedule: Q01DX011 (ip), vehicle: carboxymethylcellulose (CMC)) 91 % of control; (dose: 240.0 mg/kg/injection, schedule: Q01DX011 (ip), vehicle: carboxymethylcellulose (CMC)) 47 % of control.
On to `CS(=O)(=O)OCC1OC(OCc2ccccc2)CC1O` (stereo not drawn), for which, where the note is “dose: 25.0 mg/kg/injection, schedule: Q01DX011 (ip), vehicle: saline”, the T/C is 102 % of control.
Turning to `CCN(CC)CCOc1ccc(C2=C(c3ccccc3)CCc3cc(OC)ccc32)cc1`, the T/C was 48 % of control (dose: 25.0 mg/kg/injection, schedule: Q01DX011 (sc), vehicle: steriod suspending solution) and 32 % of control (dose: 50.0 mg/kg/injection, schedule: Q01DX011 (sc), vehicle: steriod suspending solution).
As to `Cc1cccc(N=Nc2c(S(=O)(=O)O)cc3cc(NC(=O)Nc4ccc5c(O)c(N=Nc6ccc7cc(S(=O)(=O)O)ccc7c6)c(S(=O)(=O)O)cc5c4)ccc3c2O)c1`, the T/C (dose: 45.0 mg/kg/injection, schedule: Q01DX011 (ip), vehicle: carboxymethylcellulose (CMC)) was 81 % of control.
